Experimental data: US8168231B2, “Antimicrobial composition useful for preserving wood” (Rohm and Haas Company, priority 2006, dated 2012)
Like-named read-outs stand apart in the source and are kept apart here.

Experiments:
Type in all cases: cell-based
[1] = tested on: Aspergillus niger (A. niger—ATCC 16404); test: Synergy test, microtiter plate high resolution MIC assay (PDB medium); conditions: ppm AI; for MIC: Aspergillus niger, read-out: MIC of component acting alone (Ca or Cb)
Description: (§1) One measure of synergism is the industrially accepted method described by Kull, F. C.; Eisman, P. C.; Sylwestrowicz, H. D. and Mayer, R. L., in Applied Microbiology 9:538-541 (1961), using the ratio determined by the formula: Ca/CA+Cb/CB=Synergy Index (“SI”) wherein: • CA=concentration of compound A (first component) in ppm, acting alone, which produced an end point (MIC of Compound A). • Ca=concentration of compound A in ppm, in the mixture, which produced an end point. • CB=concentration of compound B (second component) in ppm, acting alone, which produced an end point (MIC of Compound B). • Cb=concentration of compound B in ppm, in the mixture, which produced an end point.
(§2) When the sum of Ca/CA and Cb/CB is greater than one, antagonism is indicated. […] The lower the SI, the greater the synergy shown by that particular mixture. The minimum inhibitory concentration (MIC) of an antimicrobial compound is the lowest concentration tested under a specific set of conditions that prevents the growth of added microorganisms.
(§3) Synergy tests were conducted using standard microtiter plate assays with media designed for optimal growth of the test microorganism. Minimal salt medium supplemented with 0.2% glucose and 0.1% yeast extract (M9GY medium) was used for bacteria testing; Potato Dextrose Broth (PDB medium) was used for yeast and mold testing. In this method, a wide range of combinations of microbicides was tested by conducting high resolution MIC assays in the presence of various concentrations of biocides. High resolution MICs were determined by adding varying amounts of microbicide to one column of a microtitre plate and doing subsequent ten-fold dilutions using an automated liquid handling system to obtain a series of end points ranging of active ingredient. The synergy of the combinations of the present invention was determined against two bacteria, Pseudomonas aeruginosa (Ps. aeruginosa—ATCC # 9027) and Staphylococcus aureus (S. aureus—ATCC # 6538), a yeast, Candida albicans (C. albicans—ATCC # 10231), and a mold, Aspergillus niger (A. niger—ATCC 16404). The bacteria were used at a concentration of about 1-6×10^6 bacteria per mL and the yeast and mold at 1−5×10^5 fungi per mL. These microorganisms are representative of natural contaminants in many consumer and industrial applications. […] (yeast and mold) or 30° C. (bacteria).

[2] = tested on: Candida albicans (C. albicans—ATCC # 10231); test: as above; conditions: ppm AI; for MIC: Candida albicans, read-out: MIC of component acting alone (Ca or Cb)
Description: as §1, §2, §3

[3] = tested on: Staphylococcus aureus (S. aureus—ATCC # 6538); test: Synergy test, microtiter plate high resolution MIC assay (M9GY medium); conditions: ppm AI; for MIC: Staphylococcus aureus, read-out: MIC of component acting alone (Ca or Cb)
Description: as §1, §2, §3

[4] = tested on: Pseudomonas aeruginosa (Ps. aeruginosa—ATCC # 9027); test: as above; conditions: ppm AI; for MIC: Pseudomonas aeruginosa, read-out: MIC of component acting alone (Ca or Cb)
Description: as §1, §2, §3

Question: Which MIC ([1]; ATCC16404, 72 h, Table 1, contact time 3 days) does the source give for `CCCCCCCCn1sc(Cl)c(Cl)c1=O` [DCOIT, 4,5-dichloro-2-n-octyl-4-isothiazolin-3-one] here?
Answer: 0.25 µg/mL

Question: And the MIC ([1]; ATCC16404, 72 h, Table 2, contact time 3 days)?
Answer: 0.0875 µg/mL

Question: And the MIC ([1]; ATCC16404, 168 h, Table 1, contact time 7 days)?
Answer: 0.25 µg/mL

Question: What about the MIC ([1]; ATCC16404, 168 h, Table 2, contact time 7 days) of the same compound?
Answer: 0.2 µg/mL

Question: What about the MIC ([2]; ATCC10231, Table 1, contact time 48 hrs) of the same compound?
Answer: 1 µg/mL

Question: And the MIC ([2]; ATCC10231, Table 1, contact time 72 hrs)?
Answer: 1 µg/mL

Question: What about the MIC ([3]; ATCC6538, 24 h, Table 1, contact time 24 hrs) of the same compound?
Answer: 0.5 µg/mL

Question: What about the MIC ([3]; ATCC6538, 24 h, Table 2, contact time 24 hrs) of the same compound?
Answer: 0.65 µg/mL

Question: What about the MIC ([3]; ATCC6538, 48 h, Table 1, contact time 48 hrs) of the same compound?
Answer: 0.5 µg/mL

Question: What about the MIC ([3]; ATCC6538, 48 h, Table 2, contact time 48 hrs) of the same compound?
Answer: 0.65 µg/mL

Question: And the MIC ([4]; ATCC9027, 24 h, Table 1, contact time 24 hrs)?
Answer: 3 µg/mL

Question: What about the MIC ([4]; ATCC9027, 24 h, Table 2, contact time 24 hrs) of the same compound?
Answer: 2 µg/mL

Question: What about the MIC ([4]; ATCC9027, 48 h, Table 1, contact time 48 hrs) of the same compound?
Answer: 3 µg/mL

Question: And the MIC ([4]; ATCC9027, 48 h, Table 2, contact time 48 hrs)?
Answer: 4.25 µg/mL

Question: Which “MIC of component acting alone (Ca or Cb)” value ([1]; Table 1, contact time 3 days) does the source give for “Monoethanolamine complex of copper carbonate [Cu-MEA]” here?
Answer: 300 ppm

Question: And the “MIC of component acting alone (Ca or Cb)” value ([1]; Table 1, contact time 7 days)?
Answer: 300 ppm

Question: And the “MIC of component acting alone (Ca or Cb)” value ([2]; Table 1, contact time 48 hrs)?
Answer: 200 ppm

Question: And the “MIC of component acting alone (Ca or Cb)” value ([2]; Table 1, contact time 72 hrs)?
Answer: 200 ppm

Question: What about the “MIC of component acting alone (Ca or Cb)” value ([3]; Table 1, contact time 24 hrs) of the same compound?
Answer: 80 ppm

Question: What about the “MIC of component acting alone (Ca or Cb)” value ([3]; Table 1, contact time 48 hrs) of the same compound?
Answer: 200 ppm

Question: And the “MIC of component acting alone (Ca or Cb)” value ([4]; Table 1, contact time 24 hrs)?
Answer: 120 ppm

Question: And the “MIC of component acting alone (Ca or Cb)” value ([4]; Table 1, contact time 48 hrs)?
Answer: 120 ppm
